In general, pIC50 refers to −log10 of the IC50, conventionally taken in molar units.

pIC50: −log10 of the molar value.

The target of the experiment is T1, human mGluR5d (Homo sapiens, UniProt P41594).
T1 construct: expressed in transfected cells; GHEK cells stably expressing human mGluR5d are named only for the IP3 assay
As to the kind of experiment: FLIPR analysis of [Ca2+]i mobilization in cells expressing human mGluR5d. Type of experiment: cell-based. The protocol:
For FLIPR analysis, cells expressing human mGluR5das described in WO97/05252 were seeded on collagen coated clear bottom 96-well plates with black sides and analysis of [Ca^2+]i mobilization was done 24 h after seeding.
FLIPR experiments were done using a laser setting of 0.800 W and a 0.4 second CCD camera shutter speed. Each FLIPR experiment was initiated with 160 μl of buffer present in each well of the cell plate. After each addition of the compound, the fluorescence signal was sampled 50 times at 1 second intervals followed by 3 samples at 5 second intervals. Responses were measured as the peak height of the response within the sample period. EC50 and IC50 determinations were made from data obtained from 8-point concentration response curves (CRC) performed in duplicate. Agonist CRC were generated by scaling all responses to the maximal response observed for the plate. […]
FLIPR experiments were done using a laser setting of 0.800 W and a 0.4 second CCD camera shutter speed with excitation and emission wavelengths of 488 nm and 562 nm, respectively. […] After each addition the fluorescence signal was sampled 50 times at 1 second intervals followed by 3 samples at 5 second intervals. Responses were measured as the peak height of the response within the sample period. […]

T1 sequence (P41594 21-942 isoform P41594-3 limits assumed): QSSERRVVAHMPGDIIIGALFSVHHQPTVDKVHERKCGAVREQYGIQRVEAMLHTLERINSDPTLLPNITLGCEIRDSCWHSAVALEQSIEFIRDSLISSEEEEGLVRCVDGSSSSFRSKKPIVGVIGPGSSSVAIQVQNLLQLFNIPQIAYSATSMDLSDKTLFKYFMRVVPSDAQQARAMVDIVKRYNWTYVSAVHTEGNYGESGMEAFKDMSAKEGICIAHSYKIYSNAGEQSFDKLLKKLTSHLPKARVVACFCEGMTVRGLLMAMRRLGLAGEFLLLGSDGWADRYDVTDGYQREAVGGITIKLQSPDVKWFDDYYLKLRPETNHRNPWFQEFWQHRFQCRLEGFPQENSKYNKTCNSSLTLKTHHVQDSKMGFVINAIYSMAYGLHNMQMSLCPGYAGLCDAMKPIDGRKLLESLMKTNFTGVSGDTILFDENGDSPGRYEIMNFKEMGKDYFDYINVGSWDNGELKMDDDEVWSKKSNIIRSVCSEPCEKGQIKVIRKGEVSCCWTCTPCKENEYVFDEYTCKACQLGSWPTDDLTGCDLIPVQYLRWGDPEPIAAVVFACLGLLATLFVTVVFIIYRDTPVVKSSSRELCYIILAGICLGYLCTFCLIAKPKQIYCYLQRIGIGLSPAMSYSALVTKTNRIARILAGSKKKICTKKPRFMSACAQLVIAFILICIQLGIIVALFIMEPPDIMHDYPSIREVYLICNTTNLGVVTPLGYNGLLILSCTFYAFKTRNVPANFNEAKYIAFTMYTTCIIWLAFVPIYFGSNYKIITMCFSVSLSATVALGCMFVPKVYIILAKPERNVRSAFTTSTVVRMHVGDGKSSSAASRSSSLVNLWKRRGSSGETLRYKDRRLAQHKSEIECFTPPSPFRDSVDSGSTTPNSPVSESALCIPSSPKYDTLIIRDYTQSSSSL

With `CC(Sc1nnc(-c2ccncc2)n1C)c1nnn(-c2cc(Cl)ccc2F)n1` (centres unmarked) [4-(5-{1-[2-(5-Chloro-2-fluoro-phenyl)-2H-tetrazol-5-yl]-ethylsulfanyl}-4-methyl-4H-[1,2,4]triazol-3-yl)-pyridine], the pIC50 was 7.26. For `CCOC(=O)N1CCN(C(C)c2nnn(-c3cccc(Cl)c3)n2)CC1` (centres unmarked) [Ethyl 4-{1-[2-(3-chlorophenyl)-2H-tetrazol-5-yl]ethyl}piperazine-1-carboxylate] the value was 6.88.

(Values after patent US20070197549A1, “Tetrazole compounds and their use as metabotropic glutamate receptor antagonists” (AstraZeneca AB, priority 2004, published 2007).)
